Results: patent US10988465B2, “CXCR4 inhibitors and uses thereof” (X4 Pharmaceuticals, Inc., priority 2016, dated 2021)

Tests used:
[1] = in vitro; conditions: human, Caco-2, pH 7.4
Procedure, shortened: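 Caco-2 monolayers, checked by TEER with Lucifer yellow as marker, were dosed with 10 μM compound in HBSS pH 7.4 in A-to-B and B-to-A directions. Incubation was 90 min at 37° C, in duplicate. Samples were quantified by LC-MS/MS and Papp calculated.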

[2] = target: T1, CXCR-4 transfected U87 cell line (U87.CXCR4) (Homo sapiens, UniProt P61073); assay: Intracellular CXCL-12-induced calcium mobilization assay (FLIPR); assay type: cell-based; conditions: U87.CXCR4 cells; CXCL-12 25-50 ng/mL; compound added 15 min before; read-out: IC50 CXCL-12 Ca^2+ flux U87.CXCR4+
T1 construct: expressed in transfected cells; host or cells: U87 (U87.CXCR4)
T1 sequence (P61073 whole entry): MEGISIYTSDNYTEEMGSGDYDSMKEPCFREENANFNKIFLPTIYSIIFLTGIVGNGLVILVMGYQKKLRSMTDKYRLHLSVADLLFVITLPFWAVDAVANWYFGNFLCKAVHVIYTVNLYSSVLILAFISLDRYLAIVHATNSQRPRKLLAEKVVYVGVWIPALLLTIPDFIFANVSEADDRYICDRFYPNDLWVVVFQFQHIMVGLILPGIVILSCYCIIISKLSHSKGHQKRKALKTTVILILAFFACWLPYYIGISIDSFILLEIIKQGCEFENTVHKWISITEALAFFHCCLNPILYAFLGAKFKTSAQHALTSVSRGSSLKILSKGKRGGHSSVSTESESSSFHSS
Procedure, shortened: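 U87 cells stably expressing human CXCR4, loaded with Fluo-2 AM (4 μM final) for 45 min at 37 °C in HBSS/20 mM HEPES/0.2% BSA, pH 7.4. Calcium flux triggered by CXCL-12 (25-50 ng/mL) was followed by FLIPR fluorescence over time at 37 °C.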

[3] = target: T2, Jurkat cells expressing CXCR4 (Homo sapiens, UniProt P61073); assay: Chemokine (CXCL12-AF647) binding inhibition assay; conditions: CXCL12-AF647 25 ng/mL, read-out: IC50 CXCL-12 binding Jurkat
T2 construct: endogenous in cells; host or cells: Jurkat
T2 sequence (P61073 whole entry): as above
Procedure, shortened: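 Cells in HBSS, 20 mM HEPES, 0.2% BSA, pH 7.4, preincubated 15 min at room temperature with compound, then 25 ng/mL CXCL12-AF647 for 30 min. After washing and paraformaldehyde fixation, bound ligand read by flow cytometry; percent inhibition calculated from MFI relative to unlabeled and ligand-only controls.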

**Q.** Which Papp A→B at 90 min, 10 μM [1] does the source give for `CN1CCN(c2cccc3nc([C@H]4CCC[C@@H](c5nccc6occc56)N4C)[nH]c23)CC1` [I-92] here?
**A.** 10 to 30 ×10⁻⁶ cm/s

**Q.** What about the Papp B→A at 90 min, 10 μM [1] of the same compound?
**A.** 10 to 30 ×10⁻⁶ cm/s

**Q.** What about the efflux ratio at 90 min, 10 μM [1] of the same compound?
**A.** 0.1 to 10

**Q.** What about the IC50 [2] of the same compound?
**A.** 100 to 1000 nM

**Q.** And the IC50 [3]?
**A.** 0.01 to 100 nM

**Q.** What does the source list for `CN1CCN(c2cccc3nc([C@H]4CCC[C@@H](c5ncn6ccccc56)N4C)[nH]c23)CC1` [I-93]?
**A.** Papp A→B at 90 min, 10 μM [1]: 10 to 30 ×10⁻⁶ cm/s; Papp B→A at 90 min, 10 μM [1]: 10 to 30 ×10⁻⁶ cm/s; efflux ratio at 90 min, 10 μM [1]: 0.1 to 10; IC50 [2]: ≥ 1000 nM; IC50 [3]: 100 to 1000 nM

**Q.** With `CN(C)C1CCN(c2cccc3nc([C@H]4CCC[C@@H](c5ncccc5Cl)N4C)[nH]c23)CC1` [I-97] as the compound, how does the Papp A→B at 90 min, 10 μM [1] read?
**A.** 10 to 30 ×10⁻⁶ cm/s

**Q.** And the Papp B→A at 90 min, 10 μM [1]?
**A.** 10 to 30 ×10⁻⁶ cm/s

**Q.** And the efflux ratio at 90 min, 10 μM [1]?
**A.** 0.1 to 10

**Q.** What about the IC50 [2] of the same compound?
**A.** ≥ 1000 nM

**Q.** And the IC50 [3]?
**A.** 0.01 to 100 nM

**Q.** What does the source list for `Cc1cccnc1[C@@H]1CCC[C@H](c2nc3cccc(N4CC5CCC(C4)N5)c3[nH]2)N1C` [I-98]?
**A.** Papp A→B at 90 min, 10 μM [1]: 0.1 to 10 ×10⁻⁶ cm/s; Papp B→A at 90 min, 10 μM [1]: 10 to 30 ×10⁻⁶ cm/s; efflux ratio at 90 min, 10 μM [1]: > 30; IC50 [2]: 0.01 to 100 nM; IC50 [3]: 0.01 to 100 nM

**Q.** With `Cc1cccnc1[C@@H]1CCC[C@H](c2nc3cccc(N4C5CCC4CNC5)c3[nH]2)N1C` [I-99] as the compound, how does the Papp A→B at 90 min, 10 μM [1] read?
**A.** 0.1 to 10 ×10⁻⁶ cm/s

**Q.** What about the Papp B→A at 90 min, 10 μM [1] of the same compound?
**A.** > 30 ×10⁻⁶ cm/s

**Q.** What about the efflux ratio at 90 min, 10 μM [1] of the same compound?
**A.** > 30

**Q.** What about the IC50 [2] of the same compound?
**A.** 0.01 to 100 nM

**Q.** What about the IC50 [3] of the same compound?
**A.** 0.01 to 100 nM

**Q.** Which results are given for `Cc1cccnc1[C@@H]1C[C@H](O)C[C@H](c2nc3cccc(N4CCN(C)CC4)c3[nH]2)N1C` [I-100]?
**A.** Papp A→B at 90 min, 10 μM [1]: 0.1 to 10 ×10⁻⁶ cm/s; Papp B→A at 90 min, 10 μM [1]: 10 to 30 ×10⁻⁶ cm/s; efflux ratio at 90 min, 10 μM [1]: > 30; IC50 [2]: 0.01 to 100 nM; IC50 [3]: 0.01 to 100 nM

**Q.** With `Cc1cccnc1[C@@H]1C[C@@H](O)C[C@H](c2nc3cccc(N4CCN(C)CC4)c3[nH]2)N1C` [I-101] as the compound, how does the Papp A→B at 90 min, 10 μM [1] read?
**A.** 0.1 to 10 ×10⁻⁶ cm/s

**Q.** And the Papp B→A at 90 min, 10 μM [1]?
**A.** 10 to 30 ×10⁻⁶ cm/s

**Q.** And the efflux ratio at 90 min, 10 μM [1]?
**A.** > 30

**Q.** And the IC50 [2]?
**A.** 0.01 to 100 nM

**Q.** And the IC50 [3]?
**A.** 0.01 to 100 nM

**Q.** Which results are given for `CO[C@@H]1C[C@H](c2nc3cccc(N4CCN(C)CC4)c3[nH]2)N(C)[C@H](c2ncccc2C)C1` [I-102]?
**A.** Papp A→B at 90 min, 10 μM [1]: 0.1 to 10 ×10⁻⁶ cm/s; Papp B→A at 90 min, 10 μM [1]: 10 to 30 ×10⁻⁶ cm/s; efflux ratio at 90 min, 10 μM [1]: 0.1 to 10; IC50 [2]: 100 to 1000 nM; IC50 [3]: 0.01 to 100 nM

**Q.** With `Cc1nccnc1[C@@H]1CCC[C@H](c2nc3cccc(N4CCN(C)CC4)c3[nH]2)N1C` [I-105] as the compound, how does the Papp A→B at 90 min, 10 μM [1] read?
**A.** 0.1 to 10 ×10⁻⁶ cm/s

**Q.** What about the Papp B→A at 90 min, 10 μM [1] of the same compound?
**A.** 10 to 30 ×10⁻⁶ cm/s

**Q.** What about the efflux ratio at 90 min, 10 μM [1] of the same compound?
**A.** 0.1 to 10

**Q.** What about the IC50 [2] of the same compound?
**A.** ≥ 1000 nM

**Q.** What about the IC50 [3] of the same compound?
**A.** 100 to 1000 nM

**Q.** Which Papp A→B at 90 min, 10 μM [1] does the source give for `Cc1cccnc1[C@@H]1CCC[C@H](c2nc3cccc(N4CC5CC(C4)N5C)c3[nH]2)N1C` [I-109] here?
**A.** 0.1 to 10 ×10⁻⁶ cm/s

**Q.** And the Papp B→A at 90 min, 10 μM [1]?
**A.** 10 to 30 ×10⁻⁶ cm/s

**Q.** What about the efflux ratio at 90 min, 10 μM [1] of the same compound?
**A.** 0.1 to 10

**Q.** What about the IC50 [2] of the same compound?
**A.** 100 to 1000 nM

**Q.** And the IC50 [3]?
**A.** 0.01 to 100 nM

**Q.** What does the source list for `Cc1cccnc1[C@@H]1CCC[C@H](c2nc3cccc(N4CC5CC4CN5C)c3[nH]2)N1C` (stereo partly shown) [I-110]?
**A.** Papp A→B at 90 min, 10 μM [1]: 0.1 to 10 ×10⁻⁶ cm/s; Papp B→A at 90 min, 10 μM [1]: 10 to 30 ×10⁻⁶ cm/s; efflux ratio at 90 min, 10 μM [1]: 0.1 to 10; IC50 [2]: 100 to 1000 nM; IC50 [3]: 0.01 to 100 nM

**Q.** Which Papp A→B at 90 min, 10 μM [1] does the source give for `[2H]C([2H])([2H])N1CCN(c2cccc3nc([C@H]4CCC[C@@H](c5ncccc5C)N4C)[nH]c23)CC1` [I-111] here?
**A.** 10 to 30 ×10⁻⁶ cm/s

**Q.** What about the Papp B→A at 90 min, 10 μM [1] of the same compound?
**A.** 10 to 30 ×10⁻⁶ cm/s

**Q.** And the IC50 [2]?
**A.** 0.01 to 100 nM

**Q.** What about the IC50 [3] of the same compound?
**A.** 0.01 to 100 nM

**Q.** For `[2H]C([2H])([2H])N1[C@@H](c2nc3cccc(N4CCN(C)CC4)c3[nH]2)CCC[C@H]1c1ncccc1C` [I-112], which Papp A→B at 90 min, 10 μM [1] is on record?
**A.** 10 to 30 ×10⁻⁶ cm/s

**Q.** What about the Papp B→A at 90 min, 10 μM [1] of the same compound?
**A.** 10 to 30 ×10⁻⁶ cm/s

**Q.** And the IC50 [2]?
**A.** 0.01 to 100 nM

**Q.** What about the IC50 [3] of the same compound?
**A.** 0.01 to 100 nM

**Q.** With `CCc1cccnc1[C@@H]1CCC[C@H](c2nc3cccc(N4CCN(C)CC4)c3[nH]2)N1C` [I-114] as the compound, how does the Papp A→B at 90 min, 10 μM [1] read?
**A.** 10 to 30 ×10⁻⁶ cm/s

**Q.** And the Papp B→A at 90 min, 10 μM [1]?
**A.** 10 to 30 ×10⁻⁶ cm/s

**Q.** And the efflux ratio at 90 min, 10 μM [1]?
**A.** 0.1 to 10

**Q.** What about the IC50 [2] of the same compound?
**A.** 0.01 to 100 nM

**Q.** What about the IC50 [3] of the same compound?
**A.** 0.01 to 100 nM

**Q.** For `Cc1ccnc([C@@H]2CCC[C@H](c3nc4cccc(N5CCN(C)CC5)c4[nH]3)N2C)c1C` [I-115], which Papp A→B at 90 min, 10 μM [1] is on record?
**A.** 0.1 to 10 ×10⁻⁶ cm/s

**Q.** And the Papp B→A at 90 min, 10 μM [1]?
**A.** 0.1 to 10 ×10⁻⁶ cm/s

**Q.** And the efflux ratio at 90 min, 10 μM [1]?
**A.** 0.1 to 10

**Q.** What about the IC50 [2] of the same compound?
**A.** 100 to 1000 nM

**Q.** What about the IC50 [3] of the same compound?
**A.** 0.01 to 100 nM
